Target: T1, T1R umami taste receptor (Homo sapiens, UniProt Q7RTX0+Q7RTX1)
T1 sequence (Q7RTX1 21-841): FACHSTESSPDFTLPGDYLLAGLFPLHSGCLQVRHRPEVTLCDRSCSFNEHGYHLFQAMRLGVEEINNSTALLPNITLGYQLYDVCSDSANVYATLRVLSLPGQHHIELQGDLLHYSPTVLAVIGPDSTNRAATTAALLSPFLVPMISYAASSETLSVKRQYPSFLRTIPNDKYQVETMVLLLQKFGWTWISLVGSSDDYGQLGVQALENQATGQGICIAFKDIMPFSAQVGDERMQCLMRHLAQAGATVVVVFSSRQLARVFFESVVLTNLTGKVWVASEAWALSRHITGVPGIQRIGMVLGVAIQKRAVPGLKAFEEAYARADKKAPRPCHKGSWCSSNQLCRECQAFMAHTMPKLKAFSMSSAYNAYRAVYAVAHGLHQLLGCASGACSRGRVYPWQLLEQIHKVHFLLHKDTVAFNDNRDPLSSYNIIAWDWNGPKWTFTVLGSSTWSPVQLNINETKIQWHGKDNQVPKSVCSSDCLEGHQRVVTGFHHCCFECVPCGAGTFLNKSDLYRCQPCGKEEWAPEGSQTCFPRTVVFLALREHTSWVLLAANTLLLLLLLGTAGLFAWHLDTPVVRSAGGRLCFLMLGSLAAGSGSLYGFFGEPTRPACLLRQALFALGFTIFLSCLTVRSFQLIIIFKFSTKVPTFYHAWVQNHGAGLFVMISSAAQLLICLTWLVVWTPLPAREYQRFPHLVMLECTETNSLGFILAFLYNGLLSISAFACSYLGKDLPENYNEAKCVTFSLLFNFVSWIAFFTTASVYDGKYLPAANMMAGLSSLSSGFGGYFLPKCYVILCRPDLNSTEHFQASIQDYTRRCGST
T1 sequence (Q7RTX0 21-852): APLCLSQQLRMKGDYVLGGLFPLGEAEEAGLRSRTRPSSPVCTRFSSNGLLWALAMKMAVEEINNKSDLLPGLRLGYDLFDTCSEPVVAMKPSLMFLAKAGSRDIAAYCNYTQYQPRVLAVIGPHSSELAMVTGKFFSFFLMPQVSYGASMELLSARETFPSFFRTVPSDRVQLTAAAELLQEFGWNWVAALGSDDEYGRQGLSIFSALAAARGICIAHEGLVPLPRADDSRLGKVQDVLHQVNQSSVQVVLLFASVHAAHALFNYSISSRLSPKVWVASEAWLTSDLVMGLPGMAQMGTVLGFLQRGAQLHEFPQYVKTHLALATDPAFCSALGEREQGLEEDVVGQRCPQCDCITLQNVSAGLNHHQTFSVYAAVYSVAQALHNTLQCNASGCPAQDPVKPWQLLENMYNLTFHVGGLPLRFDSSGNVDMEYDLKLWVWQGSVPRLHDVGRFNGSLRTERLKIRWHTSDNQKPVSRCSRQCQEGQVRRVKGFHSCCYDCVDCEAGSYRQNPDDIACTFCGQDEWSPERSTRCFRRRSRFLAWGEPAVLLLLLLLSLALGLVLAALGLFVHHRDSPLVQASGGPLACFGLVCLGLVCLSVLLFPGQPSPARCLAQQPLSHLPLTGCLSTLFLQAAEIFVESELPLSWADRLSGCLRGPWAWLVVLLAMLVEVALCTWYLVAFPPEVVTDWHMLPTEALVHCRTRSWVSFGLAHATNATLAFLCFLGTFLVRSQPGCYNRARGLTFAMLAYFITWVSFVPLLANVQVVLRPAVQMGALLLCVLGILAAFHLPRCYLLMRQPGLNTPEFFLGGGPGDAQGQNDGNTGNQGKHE
Experiment: in vitro cell-based assay having cells that express the T1R umami taste receptor (enhancement of MSG)
Settings: for EC50: cells expressing T1R umami taste receptor, read-out: EC50 for enhancement of MSG binding
Description: Each of Compounds 101-183 was synthesized according to one of the general procedures set forth above in Examples 1. Thereafter, the compounds were tested in an in vitro cell-based assay having cells that express the T1R umami taste receptor. Dose-binding curves were recorded and the EC50 was determined for enhancement of MSG binding. Table 2 sets forth the calculated EC50 values for certain tested compounds as well as the MSG enhancement ratio at a particular concentration.

| SMILES | EC50 [µM] | MSG Enh. Ratio (compound at 50 μM) | MSG Enh. Ratio (compound at 10 μM) | MSG Enh. Ratio (compound at 3 μM) |
| --- | --- | --- | --- | --- |
| COC(=O)[C@@H](CC(C)C)NC(=O)c1ccc(C)cc1 [Compound 101, Methyl (4-methylbenzoyl)-D-leucinate] | < 2 | – | – | – |
| CCOC(=O)[C@@H](CC(C)C)NC(=O)c1ccc(C)cc1 [Compound 102, Ethyl (4-methylbenzoyl)-D-leucinate] | < 2 | – | – | – |
| COC(=O)[C@H](Cc1ccccc1)NC(=O)c1ccc(C)cc1 [Compound 104, Methyl (4-methylbenzoyl)-L-phenylalaninate] | > 50 | – | 3.3 @ | – |
| CCOC(=O)[C@@H](NC(=O)c1ccc(OC)cc1)C(C)C [Compound 106, Ethyl (4-methoxybenzoyl)-L-valinate] | 36 | 3.6 @ | – | – |
| CCOC(=O)CC[C@H](NC(=O)c1ccc(C(C)C)cc1)C(=O)OCC [Compound 111, Diethyl (4-isopropylbenzoyl)-L-glutamate] | 26 | 4.4 @ | – | – |
| COC(=O)[C@@H](CC(C)C)NC(=O)c1ccc(C)c(C)c1 [Compound 114, Methyl (3,4-dimethylbenzoyl)-D-leucinate] | 0.7 | – | – | – |
| COC(=O)[C@H](Cc1ccccc1)NC(=O)c1ccc(C)c(C)c1 [Compound 119, Methyl (3,4-dimethylbenzoyl)-L-phenylalaninate] | 8 | – | – | 4.6 @ |
| CCOC(=O)CC[C@H](NC(=O)c1ccc(C)c(C)c1)C(=O)OCC [Compound 122, Diethyl (3,4-dimethylbenzoyl)-L-glutamate] | 2 | – | – | 4.9 @ |
| COC(=O)[C@@H](NC(=O)c1ccc(OC)c(OC)c1)C(C)C [Compound 124, Methyl (3,4-dimethoxybenzoyl)-L-valinate] | > 50 | 1.8 @ | – | – |
| COC(=O)[C@@H](NC(=O)c1ccc2c(c1)OCO2)C(C)C [Compound 127, Methyl (benzo[d][1,3]dioxole-5-carbonyl)-L-valinate] | > 50 | 3.4 @ | – | – |
| COC(=O)[C@H](Cc1ccccc1)NC(=O)c1ccc2c(c1)OCO2 [Compound 128, Methyl (benzo[d][1,3]dioxole-5-carbonyl)-L-phenylalaninate] | > 50 | – | 3.7 @ | – |
| CCOC(=O)[C@@H](NC(=O)c1ccc2ccccc2n1)C(C)C [Compound 133, Ethyl (quinoline-2-carbonyl)-L-valinate] | > 50 | 2.7 @ | – | – |
| CCOC(=O)CC[C@H](NC(=O)c1cn(C)c2ccccc12)C(=O)OCC [Compound 134, Diethyl (1-methyl-1H-indole-3-carbonyl)-L-glutamate] | > 50 | 3.8 @ | – | – |
| CCOC(=O)[C@H](CC(C)C)NC(=O)/C=C/c1ccccc1 [Compound 135, Ethyl cinnamoyl-L-leucinate] | – | 5.3 @ | – | – |
| CCOC(=O)[C@@H](NC(=O)/C=C/c1ccccc1)C(C)C [Compound 136, Ethyl cinnamoyl-L-valinate] | 23 | – | 5.4 @ | – |
| CCOC(=O)[C@@H](NC(=O)/C=C/c1ccccc1)[C@@H](C)CC [Compound 137, Ethyl cinnamoyl-L-isoleucinate] | – | 4.3 @ | – | – |

The next lines start with the values.

| EC50 [µM] | MSG Enh. Ratio (compound at 50 μM) | MSG Enh. Ratio (compound at 10 μM) | MSG Enh. Ratio (compound at 3 μM) | SMILES |
| --- | --- | --- | --- | --- |
| > 50 | 3.4 @ | – | – | COC(=O)[C@H](CC(C)C)NC(=O)c1ccc(C)cc1 [Compound 103, Methyl (4-methylbenzoyl)-L-leucinate] |
| 36 | 6.5 @ | – | – | COC(=O)[C@H](Cc1ccccc1)NC(=O)c1ccc(OC)cc1 [Compound 105, Methyl (4-methoxybenzoyl)-L-phenylalaninate] |
| > 50 | 3.2 @ | – | – | COC(=O)[C@H](Cc1ccccc1)NC(=O)c1cccc(OC)c1 [Compound 107, Methyl (3-methoxybenzoyl)-L-phenylalaninate] |
| > 50 | 2.7 @ | – | – | CCOC(=O)[C@@H](NC(=O)c1cccc(OC)c1)C(C)C [Compound 108, Ethyl (3-methoxybenzoyl)-L-valinate] |
| 0.7 | – | – | – | CCOc1ccc(C(=O)N[C@H](CC(C)C)C(=O)OC)cc1 [Compound 109, Methyl (4-ethoxybenzoyl)-D-leucinate] |
| > 50 | 2.7 @ | – | – | CCOC(=O)[C@@H](NC(=O)c1ccc(COC)cc1)C(C)C [Compound 110, Ethyl (4-(methoxymethyl)benzoyl)-L-valinate] |
| > 50 | 2.8 @ | – | – | COC(=O)[C@H](Cc1ccccc1)NC(=O)c1ccccn1 [Compound 112, Methyl picolinoyl-L-phenylalaninate] |
| 0.3 | – | – | – | COC(=O)[C@@H](Cc1ccccc1)NC(=O)c1ccc(C)c(C)c1 [Compound 113, Methyl (3,4-dimethylbenzoyl)-D-phenylalaninate] |
| 0.1 | – | – | – | CCOC(=O)[C@@H](CC(C)C)NC(=O)c1ccc(C)c(C)c1 [Compound 115, Ethyl (3,4-dimethylbenzoyl)-D-leucinate] |
| – | – | – | 3.7 @ | CCOC(=O)[C@H](CC(C)C)NC(=O)c1ccc(C)c(C)c1 [Compound 116, Ethyl (3,4-dimethylbenzoyl)-L-leucinate] |
| 11.1 | – | – | 4.6 @ | COC(=O)[C@@H](NC(=O)c1ccc(C)c(C)c1)C(C)C [Compound 117, Methyl (3,4-dimethylbenzoyl)-L-valinate] |
| 4.8 | – | – | 7.0 @ | CCOC(=O)[C@@H](NC(=O)c1ccc(C)c(C)c1)C(C)C [Compound 118, Ethyl (3,4-dimethylbenzoyl)-L-valinate] |
| 12 | – | 4.6 @ | – | CCOC(=O)[C@H](Cc1ccccc1)NC(=O)c1ccc(C)c(C)c1 [Compound 120, Ethyl (3,4-dimethylbenzoyl)-L-phenylalaninate] |
| 12 | – | 7.0 @ | – | CCOC(=O)[C@H](Cc1ccc(OC)cc1)NC(=O)c1ccc(C)c(C)c1 [Compound 121, Ethyl (S)-2-(3,4-dimethylbenzamido)-3-(4-methoxyphenyl)propanoate] |
| > 50 | 2.5 @ | – | – | COC(=O)[C@H](Cc1ccccc1)NC(=O)c1ccc(OC)c(OC)c1 [Compound 123, Methyl (3,4-dimethoxybenzoyl)-L-phenylalaninate] |
| > 50 | 2.7 @ | – | – | CC[C@H](C)[C@H](NC(=O)c1ccc(OC)c(OC)c1)C(=O)OC [Compound 125, Methyl (3,4-dimethoxybenzoyl)-L-isoleucinate] |
| – | 5.2 @ | – | – | CCOC(=O)CC[C@H](NC(=O)c1cc(OC)cc(OC)c1)C(=O)OCC [Compound 126, Diethyl (3,5-dimethoxybenzoyl)-L-glutamate] |
| 12 | – | – | 7.5 @ | CCOC(=O)CC[C@H](NC(=O)c1ccc2c(c1)OCO2)C(=O)OCC [Compound 129, Diethyl (benzo[d][1,3]dioxole-5-carbonyl)-L-glutamate] |
| 0.5 | – | – | – | CCOC(=O)[C@@H](CC(C)C)NC(=O)c1ccc2c(c1)OCO2 [Compound 130, Ethyl (benzo[d][1,3]dioxole-5-carbonyl)-D-leucinate] |
| – | 5.6 @ | – | – | CCOC(=O)CC[C@H](NC(=O)c1ccc(C)c(C)n1)C(=O)OCC [Compound 131, Diethyl (5,6-dimethylpicolinoyl)-L-glutamate] |
| > 50 | 2.6 @ | – | – | CCCCc1ccc(C(=O)N[C@@H](Cc2ccccc2)C(=O)OC)nc1 [Compound 132, Methyl (5-butylpicolinoyl)-L-phenylalaninate] |
